{
  "source": "paper PMC3906421",
  "about": "(Journal of medicinal chemistry, 2013)",
  "biological_target": "HIV-1 reverse transcriptase (RT35A, wild type) (Human immunodeficiency virus type 1 group M subtype B, UniProt P03366)",
  "test": "JDAM dual activity monitor RT activity assay",
  "format": "biochemical",
  "settings": "for ligand efficiency: LE = -RTln(IC50)/NHA",
  "data": [
    {"compound": "CCOC(=O)c1cnn2ccccc12", "note": "[compound 1, ethyl pyrazolo[1,5-a]pyridine-3-carboxylate]", "values": [
      {"measurement": "ligand efficiency", "value": 0.34, "unit": "kcal/mol●NHA"}
    ]},
    {"compound": "NCc1ccc(OC(F)(F)F)cc1", "note": "[compound 2, 4-(trifluoromethoxy)benzylamine]", "values": [
      {"measurement": "inhibition (in words)", "setting": "at 1 mM, JDAM assay", "value": "no detectable inhibition"}
    ]},
    {"compound": "Oc1ccc(OC(F)(F)F)cc1", "note": "[compound 3, 4-(trifluoromethoxy)phenol]", "values": [
      {"measurement": "ligand efficiency", "value": 0.37, "unit": "kcal/mol●NHA"}
    ]},
    {"compound": "CN(CC(=O)N1CCCc2ccccc21)Cc1nc(=O)c2ccccc2[nH]1", "note": "[compound 8, 2-(((2-(3,4-dihydroquinolin-1(2H)-yl)-2-oxoethyl)(methyl)amino)methyl)quinazolin-4(1H)-one]", "values": [
      {"measurement": "ligand efficiency", "value": 0.19, "unit": "kcal/mol●NHA"}
    ]}
  ]
}
